Laboratory results reported in patent publication US10022366B2, “Extending and maintaining micropore viability of microneedle treated skin with lipid biosynthesis inhibitors for sustained drug delivery” (University of Maryland, Baltimore, priority 2013, dated 2018).

Assay: Reversibility/recovery of pores by transepidermal water loss (TEWL)
Type: in vivo, hairless guinea pigs (HGP)
Conditions: following 7-day treatment with FLU in vivo
From the text: The reversibility/recovery of the pores following removal of occlusion was studied using transepidermal water loss (TEWL) in a HGP model. Five different sites were chosen on the dorsal region of an animal. […] All sites were marked and cleaned on the day of the treatment. […] The concentration and amount of NTX gel and FLU were consistent with the PK studies. A placebo gel was used for site 3 and site 4. The placebo gel was similar in composition to the NTX gel with 10% PG, 1% benzyl alcohol and 3% HEC as the gelling agent. […] All sites were occluded using a transdermal patch (148) secured in place with Bioclusive™ tape. […] All experiments were conducted at least in triplicate. Recovery of the skin, (i.e., regeneration of the barrier function of the SC) was studied using TEWL. These studies were carried out to look at the effect of the local concentration of FLU on the recovery/healing of the skin following removal of occlusion.

CC(C)n1c(/C=C/C(O)CC(O)CC(=O)O)c(-c2ccc(F)cc2)c2ccccc21 (stereo not shown) [FLU, fluvastatin sodium]
time of recovery/healing of skin upon removal of occlusion: 45 min
